According to patent US20110296540A1, “ASSAY FOR SCREENING ANTIDEPRESSANTS” (priority 2008, published 2011):
Read-outs that look alike come from different tables or passages of the source.

Columns and labels:
[1] = tested on: dentate gyrus of the adult mouse hippocampus; assay: BrdU labeling for proliferation and survival study, corticosterone model
Experimental: After anesthesia with ketamine (100 mg/kg), mice were perfused transcardially (cold saline for 2 min, followed by 4% cold paraformaldehyde at 4° C.). […] For DAB staining, sections were mounted on slides and boiled in citric acid (pH 6.0) for 5 min, rinsed with PBS, and treated with 0.01% trypsin in Tris/CaCl2 for 10 min. Brain sections were incubated for 30 min with 2N HCl and blocked with 5% NGS. Sections were then incubated overnight at room temperature with anti-mouse BrdU (1:100). After washing with PBS, sections were incubated for 1 hr with secondary antibody (1:200 biotinylated goat anti-mouse) followed by amplification with an avidinbiotin complex. The staining was visualized with DAB.

HPA axis = assay: Stress evoked increase of corticosterone levels; format: in vivo, mice; conditions: acute swim stress; baseline conditions and after chronic corticosterone treatment
Experimental: Adult male C57BL/6Ntac mice were exposed to a 6 minutes swim stress. […]. Blood was collected into ice-chilled tubes containing EDTA and centrifuged at 3000 rpm for 10 min (at 4° C.) for separation of plasma, and plasma samples were stored at −80° C. until assayed. […]; Diagnostic Systems Laboratories, Inc. Webster, Tex.; sensitivity limit: 20 ng/ml). ACTH was measured directly in plasma using an ImmuChem™ Double Antibody hACTH 1251 RIA kit (No. 07-106101; MP Biomedicals, LLC, Orangeburg, N.Y.) with a sensitivity limit ˜5.7 pg/ml. All samples were measured simultaneously to reduce inter-assay variability.

5-HT1A autoreceptors = molecular target: T1, 5-HT1A autoreceptors (Mus musculus, UniProt Q64264)
T1 sequence (Q64264 1-421): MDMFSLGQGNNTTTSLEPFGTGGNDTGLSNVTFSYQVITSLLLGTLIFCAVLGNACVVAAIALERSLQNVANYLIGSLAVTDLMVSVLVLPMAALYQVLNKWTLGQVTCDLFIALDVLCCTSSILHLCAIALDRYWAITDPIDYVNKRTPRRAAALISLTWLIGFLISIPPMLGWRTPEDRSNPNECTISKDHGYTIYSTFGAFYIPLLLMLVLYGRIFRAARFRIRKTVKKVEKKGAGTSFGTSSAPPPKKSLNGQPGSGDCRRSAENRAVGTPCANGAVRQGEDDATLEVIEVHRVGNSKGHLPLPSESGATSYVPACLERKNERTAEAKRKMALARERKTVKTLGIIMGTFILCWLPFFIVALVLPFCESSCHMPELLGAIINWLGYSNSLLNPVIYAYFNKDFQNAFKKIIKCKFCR
Experimental: (A) 8-OH DPAT-induced hypothermia in 1A-High and 1A-Low mice. Following establishment of baseline body temperature, animals received IP injections of 0.1 mg/kg 8-OHDAPT, 0.5 mg/kg 8-OH DPAT, or saline (N=5/dose/group). Values are expressed as core temperature change from the last recorded baseline temperature.

Description for C57BL/6Ntac mice: The novelty suppressed feeding paradigm (NSF) is a conflict test that elicits competing motivations: the drive to eat and the fear of venturing into the center of brightly lit arena. […] Briefly, the testing apparatus consisted of a plastic box (50×50×20 cm), the floor of which was covered with approximately 2 cm of wooden bedding. Twenty-four hours prior to behavioral testing, all food was removed from the home cage. At the time of testing, a single pellet of food (regular chow) was placed on a white paper platform positioned in the center of the box. An animal was placed in a corner of the box, and a stopwatch was immediately started. The latency to eat (defined as the mouse sitting on its haunches and biting the pellet with the use of forepaws) was timed. Immediately afterwards, the animal was transferred to its home cage, and the amount of food consumed by the mouse in the subsequent 5 min was measured, serving as a control for change in appetite as a possible confounding factor. Each mouse was weighed before food deprivation and before testing to assess the percentage of body weight loss (data not shown).
Mice were anesthetized with ketamine and xylazine (100 mg/ml ketamine; 20 mg/ml xylazine), placed in a stereotaxic frame and exposed to cranial irradiation using a Siemens Stabilopan X-ray system operated at 300 kVp and 20 mA. […] Dosimetry was done using a Capintec Model PR06G electrometer ionization chamber and Kodak Readypack Radiographic XV films. The corrected dose rate was approximately 1.8 Gy per min at a source to skin distance of 30 cm. The procedure lasted 2 min and 47 sec, delivering a total of 5 Gy. Three 5 Gy doses were delivered on days 1, 4 and 8.

Question: With `CNCCC(Oc1ccc(C(F)(F)F)cc1)c1ccccc1` (stereo not shown) [fluoxetine] as the compound, how does the “change in cell proliferation induced by corticosterone” value ([1]; 3 weeks of fluoxetine 18 mg/kg/day) read?
Answer: Its value is “completely reversed”.

Question: And the “effect of fluoxetine on survival” value ([1]; in the presence of corticosterone, compared with controls)?
Answer: Its value is “even more pronounced”.

Question: And the hippocampal cell proliferation ([1]; non-corticosterone treated C57BL/6Ntac mice, chronic fluoxetine)?
Answer: The hippocampal cell proliferation was “did not affect”.

Question: What about the “effects of fluoxetine to reverse the anxiety/depressive-like state in the NSF paradigm” value (C57BL/6Ntac mice; after hippocampal irradiation, chronic corticosterone) of the same compound?
Answer: The value was “completely abolished”.

Question: And the “corticosterone-induced change in the latency to feed (NSF)” value (C57BL/6Ntac mice; chronic fluoxetine 18 or imipramine 40 mg/kg/day in corticosterone-treated mice)?
Answer: The value was “reversed”.

Question: And the “latency to feed (NSF)” value (C57BL/6Ntac mice; irradiated corticosterone/fluoxetine group)?
Answer: Its value is 546.2 s.

Question: What about the “latency to feed (NSF)” value (C57BL/6Ntac mice; sham corticosterone/fluoxetine group) of the same compound?
Answer: The value was 371.3 s.

Question: What about the “stress induced corticosterone levels” value (HPA axis) of the same compound?
Answer: Its value is “had no effect”.

Question: What about the “hypothermic response to 8-OH DPAT after chronic fluoxetine” value (5-HT1A autoreceptors; 1A-High mice treated with fluoxetine for 30 days) of the same compound?
Answer: The value was “no hypothermic response”.

Question: And the “hypothermic response to 8-OH DPAT after chronic fluoxetine” value (5-HT1A autoreceptors; 1A-Low mice treated with fluoxetine for 30 days)?
Answer: Its value is “blunted hypothermic response”.
